From patent US12319710B2, “Catecholamine prodrugs for use in the treatment of Parkinson's diseases” (H. Lundbeck A/S, priority 2019, dated 2025)
“Also recorded” adds a separate entry of the source.

Experiments:
human 5-HT2B receptor = biological target: T1, human 5-HT2B receptor (Homo sapiens, UniProt P41595); test: 5-HT2B radioligand binding assay ([125I](±)DOI, CHO cell membranes); conditions: read-out: 5-HT2B % @ 10 μM (binding affinity, % inhibition of control specific binding)
T1 construct: host or cells: CHO cells (membrane homogenates)
T1 sequence (P41595 whole entry): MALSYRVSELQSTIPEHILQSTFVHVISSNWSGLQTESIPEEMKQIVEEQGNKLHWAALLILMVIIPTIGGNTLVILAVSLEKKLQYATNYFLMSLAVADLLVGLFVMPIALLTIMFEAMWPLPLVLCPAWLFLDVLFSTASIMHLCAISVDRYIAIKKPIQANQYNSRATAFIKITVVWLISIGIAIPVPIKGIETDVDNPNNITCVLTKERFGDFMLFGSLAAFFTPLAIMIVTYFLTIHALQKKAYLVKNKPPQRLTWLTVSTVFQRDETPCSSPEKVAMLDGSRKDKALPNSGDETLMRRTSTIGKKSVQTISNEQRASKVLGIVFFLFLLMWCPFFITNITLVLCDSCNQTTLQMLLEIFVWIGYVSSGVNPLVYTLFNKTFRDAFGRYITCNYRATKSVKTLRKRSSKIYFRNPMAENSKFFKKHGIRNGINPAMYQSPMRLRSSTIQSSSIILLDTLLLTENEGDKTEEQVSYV
Procedure: Evaluation of the affinity of compounds for the human 5-HT2B receptor was determined in a radioligand binding assay at Eurofins/Cerep (France). Membrane homogenates prepared from CHO cells expressing the human 5HT2B receptor were incubated for 60 minutes at room temperature with 0.2 nM [1251](±)DOI (1-(4-iodo-2, 5-dimethoxyphenyl)propan-2-amine) in the absence or presence of the test compound in a buffer containing 50 mM Tris-HCl (pH 7.4), 5 mM MgCl2, 10 μM pargyline and 0.1% ascorbic acid. Nonspecific binding is determined in the presence of 1 μM (±)DOI. Following incubation, the samples were filtered rapidly under vacuum through glass fiber filters (GF/B, Packard) presoaked with 0.3% polyethyleneimine (PEI) and rinsed several times with ice-cold 50 mM Tris-HCl using a 96-sample cell harvester (Unifilter, Packard). The filters were dried and counted for radioactivity in a scintillation counter (Topcount, Packard) using a scintillation cocktail (Microscint 0, Packard). The results are expressed as a percent inhibition of the control radioligand specific binding. The standard reference compound was (±)DOI, which was tested in each experiment at several concentrations to obtain a competition curve from which its IC50 is calculated.

human hepatocytes = test: Conversion of compounds in human hepatocytes; type: in vitro ADME; conditions: 1 μM compound, 37° C.; nd: not detected
Procedure: Incubations were conducted in 96-well plates at 1 μM compound concentration in duplicate. The hepatocyte cell concentration was 0.5×10^6 cells/mL used for final incubation at 37° C. in an incubator of 5% CO2 95% relative humidity. The medium control samples were included at 0 and 60 minutes in the absence of cells. The total organic concentration was 1% (DMSO 0.1%) in the final incubation. The controls, (7-ethoxycoumarin and 7-hydroxycoumarin) was incubated parallel at […]. 2 μL of dosing solution (50 μM for test compounds and 100 μM for positive control) was mixed with 98 μL of 100 mM PBS to achieve 1 μM test compound and 2 μM positive control of final concentration. The mixture was incubated, and samples were withdrawn from the incubations at pre-determined time points of 0, 0.5, 1, 2, 4 and 6 hour (in duplicate) at 37° C. in water bath. To each sample, 10 μL inhibitor and 20 μL ascorbic acid and 2 μL formic acid (20%) were added followed by 400 μL of stop solution (200 ng/mL tolbutamide plus 200 ng/mL labetalol in 50% ACN/MeOH). The substance was mixed thoroughly and thereafter centrifuged at 4,000 rpm for 20 minutes. An aliquot of supernatant (50 μL) from each well were transferred to a sample plate and mixed with 100 μL ultrapure water. The plate was shaked at 800 rpm for about 10 minutes before submitting to LC-MS/MS analysis.
(§1) Instrumentation Used for Analysis of Plasma and Hepatocyte Incubation Samples
(§2) Mass spectrometer (LC-MS/MS) Shimadzu LC 20-AD Shimadzu UHPLC API 4000. Analytical column ACQUITY UPLC® BEH Phenyl 1.7 μm 2.1×50 mm. Mobile phase A: 0.1% Formic Acid in Water. Mobile phase B: 0.1% Formic Acid in Acetonitrile. […] Flow rate 0.7 mL/min.

[1] = PK experiments in rats: plasma compound (I) after oral dosing of prodrug; type: in vivo, Wistar rats; conditions: for Observed metabolite, in vivo PK study after oral dosing (rats): plasma
Procedure: Plasma was placed on water-ice following collection. Final storage at approximately −70° C.
Mobile phase B: Acetonitrile. […] Flow rate 0.5 mL/min.
The rats had unrestricted access to the diet.
Mobile phase B: Acetonitrile+0.2% formic acid. […] Flow rate 0.3 mL/min.
Dosing and blood sampling: Han Wistar rats were supplied by Envigo, UK. […] The rats received a standard laboratory diet Teklad 2014C. The rats had unrestricted access to the diet. […] Rats were given […] (Ic), 487 ag/kg compound (7), 487 ag/kg Compound (4), 674 ag/kg compound (9), 359 ag/kg A6 and 551 ag/kg A2.

[2] = Conversion of compounds in human plasma; type: in vitro ADME; conditions: for Observed metabolite, incubation in human plasma: 1 μM test compound, 37° C., 0-6 hours, nd: not detected
Procedure: Frozen human plasma was thawed and then centrifuged at 3200×g for 5 minutes to remove debris. The pH value of the supernatant was then measured and adjusted to 7.4±0.1 by adding 1% phosphoric acid or 1 N sodium hydroxide. 2 μL of dosing solution (50 μM for test compounds and 100 μM for positive control (propantheline bromide)) was mixed with 98 μL of blank plasma to achieve 1 μM test compound and 2 μM positive control of final concentration. The mixture was incubated, and samples were withdrawn from the incubations at the pre-determined time points of 0, 0.5, 1, 2, 4 and 6 hours (in duplicate) at 37° C. in water bath. At each corresponding time point 10 μL inhibitor and 20 μL ascorbic acid and 2 μL formic acid (20%) are added, and then added 400 μL of “stop solution” (200 ng/mL tolbutamide plus 200 ng/mL labetalol in 50% ACN/MeOH) to precipitate protein. The substance was mixed thoroughly and thereafter centrifugated at 4,000 rpm for 20 minutes. Then an aliquot of supernatant (50 μL) was transferred from each well to a sample plate and mixed with 100 μL ultrapure water. The plate was shaked at 800 rpm for about 10 minutes before submitting to LC-MS/MS analysis.
as §1, §2

CCCN1CCC[C@@H]2Cc3c(ccc(O[C@@H]4O[C@H](COC(C)=O)[C@@H](OC(C)=O)[C@H](OC(C)=O)[C@H]4OC(C)=O)c3O[C@@H]3O[C@H](COC(C)=O)[C@@H](OC(C)=O)[C@H](OC(C)=O)[C@H]3OC(C)=O)C[C@H]21 [Compound (8), [(2R,3R,4S,5R,6S)-6-[[(4aR,10aR)-1-propyl-6-[(2S,3R,4S,5R,6R)-3,4,5-triacetoxy-6-(acetoxymethyl)tetrahydropyran-2-yl]oxy-3,4,4a,5,10,10a-hexahydro-2H-benzo[g]quinolin-7-yl]oxy]-3,4,5-triacetoxy-tetrahydropyran-2-yl]methyl acetate]
inhibition at 10 µM (human 5-HT2B receptor): -12%

CCCN1CCC[C@@H]2Cc3c(ccc(OC)c3O)C[C@H]21 [Compound A6, (4aR,10aR)-7-methoxy-1-propyl-1,2,3,4,4a,5,10,10a-octahydrobenzo[g]quinolin-6-ol]
Observed metabolite, incubation in human hepatocytes (human hepatocytes): Compound (I)
Observed metabolite, in vivo PK study after oral dosing (rats) [1]: Compound (I)
inhibition at 10 µM (human 5-HT2B receptor): 24%

CCCN1CCC[C@@H]2Cc3c(ccc(O[C@@H]4O[C@H](CO)[C@@H](O)[C@H](O)[C@H]4O)c3O)C[C@H]21 [Compound (7), (2S,3R,4S,5S,6R)-2-(((4aR,10aR)-6-hydroxy-1-propyl-1,2,3,4,4a,5,10,10a-octahydrobenzo[g]quinolin-7-yl)oxy)-6-(hydroxymethyl)tetrahydro-2H-pyran-3,4,5-triol]
inhibition at 10 µM (human 5-HT2B receptor): 7%

CCCN1CCC[C@@H]2Cc3c(ccc(OC(=O)C(C)(C)C)c3OC(=O)C(C)(C)C)C[C@H]21 [(Ic), reference compound]
plasma concentrations of compound (I) after oral dosing (in words) ([1]; Wistar rats, oral): extremely low
inhibition at 10 µM (human 5-HT2B receptor): -5%

CCCN1CCC[C@@H]2Cc3c(ccc(O)c3O[C@@H]3O[C@H](CO)[C@@H](O)[C@H](O)[C@H]3O)C[C@H]21 [Compound (4), (2S,3R,4S,5S,6R)-2-(((4aR,10aR)-7-hydroxy-1-propyl-1,2,3,4,4a,5,10,10a-octahydrobenzo[g]quinolin-6-yl)oxy)-6-(hydroxymethyl)tetrahydro-2H-pyran-3,4,5-triol]
Observed metabolite, incubation in human hepatocytes (human hepatocytes): Compound (I)
Observed metabolite, in vivo PK study after oral dosing (rats) [1]: Compound (I)
Observed metabolite, in vivo PK study after oral dosing (rats) ([1]; listed as compound (4)): showed conversion in vivo
inhibition at 10 µM (human 5-HT2B receptor): 0%

CCCN1CCC[C@@H]2Cc3c(ccc(OC(C)=O)c3O[C@@H]3O[C@H](COC(C)=O)[C@@H](OC(C)=O)[C@H](OC(C)=O)[C@H]3OC(C)=O)C[C@H]21 [Compound (3), (2S,3R,4S,5R,6R)-2-(((4aR,10aR)-7-acetoxy-1-propyl-1,2,3,4,4a,5,10,10a-octahydrobenzo[g]quinolin-6-yl)oxy)-6-(acetoxymethyl)tetrahydro-2H-pyran-3,4,5-triyl triacetate]
Observed metabolite, incubation in human hepatocytes (human hepatocytes): Compound (4)
inhibition at 10 µM (human 5-HT2B receptor): 18%

CCCN1CCC[C@@H]2Cc3c(ccc(O)c3O[C@@H]3O[C@H](COC(C)=O)[C@@H](OC(C)=O)[C@H](OC(C)=O)[C@H]3OC(C)=O)C[C@H]21 [Compound (2), (2R,3R,4S,5R,6S)-2-(acetoxymethyl)-6-(((4aR,10aR)-7-hydroxy-1-propyl-1,2,3,4,4a,5,10,10a-octahydrobenzo[g]quinolin-6-yl)oxy)tetrahydro-2H-pyran-3,4,5-triyl triacetate]
Observed metabolite, incubation in human plasma [2]: Glucuronide
Observed metabolite, incubation in human plasma ([2]; listed as compound (2)): glucuronide derivative
inhibition at 10 µM (human 5-HT2B receptor): -6%

CCCN1CCC[C@@H]2Cc3c(ccc(O)c3O)C[C@H]21 [(I), (4aR,10aR)-1-Propyl-1,2,3,4,4a,5,10,10a-octahydro-benzo[g]quinoline-6,7-diol, reference compound]
half-life in the plasma assay ([2]; human plasma incubation): short half-life

CCCN1CCC[C@@H]2Cc3c(ccc(O[C@@H]4O[C@H](COC(C)=O)[C@@H](OC(C)=O)[C@H](OC(C)=O)[C@H]4OC(C)=O)c3O)C[C@H]21 [Compound (5), (2R,3R,4S,5R,6S)-2-(acetoxymethyl)-6-(((4aR,10aR)-6-hydroxy-1-propyl-1,2,3,4,4a,5,10,10a-octahydrobenzo[g]quinolin-7-yl)oxy)tetrahydro-2H-pyran-3,4,5-triyl triacetate]
Observed metabolite, incubation in human plasma [2]: Compound (7)
Observed metabolite, incubation in human hepatocytes (human hepatocytes): Compound (7)
inhibition at 10 µM (human 5-HT2B receptor): 9%

CCCN1CCC[C@@H]2Cc3c(ccc(OCc4ccccc4)c3O)C[C@H]21 [Compound A2, (4aR,10aR)-7-(benzyloxy)-1-propyl-1,2,3,4,4a,5,10,10a-octahydrobenzo[g]quinolin-6-ol]
Observed metabolite, incubation in human plasma [2]: Compound (I)
Observed metabolite, incubation in human hepatocytes (human hepatocytes): Compound (I)
Observed metabolite, in vivo PK study after oral dosing (rats) [1]: Compound (I)
inhibition at 10 µM (human 5-HT2B receptor): 30%

CCCN1CCC[C@@H]2Cc3c(ccc(O[C@@H]4O[C@H](COC(C)=O)[C@@H](OC(C)=O)[C@H](OC(C)=O)[C@H]4OC(C)=O)c3OC(C)=O)C[C@H]21 [Compound (6), (2S,3R,4S,5R,6R)-2-(((4aR,10aR)-6-acetoxy-1-propyl-1,2,3,4,4a,5,10,10a-octahydrobenzo[g]quinolin-7-yl)oxy)-6-(acetoxymethyl)tetrahydro-2H-pyran-3,4,5-triyl triacetate]
Observed metabolite, incubation in human plasma [2]: Compound (7); also recorded: Compound (5)
Observed metabolite, incubation in human hepatocytes (human hepatocytes): Compound (7); also recorded: Compound (5)
inhibition at 10 µM (human 5-HT2B receptor): -5%

CCCN1CCC[C@@H]2Cc3c(ccc(O[C@@H]4O[C@H](CO)[C@@H](O)[C@H](O)[C@H]4O)c3O[C@@H]3O[C@H](CO)[C@@H](O)[C@H](O)[C@H]3O)C[C@H]21 [Compound (9), (2R,2′R,3S,3′S,4S,4′S,5R,5′R,6S,6′S)-6,6′-(((4aR,10aR)-1-propyl-1,2,3,4,4a,5,10,10a-octahydrobenzo[g]quinoline-6,7-diyl)bis(oxy))bis(2-(hydroxymethyl)tetrahydro-2H-pyran-3,4,5-triol)]
Observed metabolite, incubation in human plasma [2]: Compound (7)
Observed metabolite, incubation in human hepatocytes (human hepatocytes): Compound (4); also recorded: Compound (7)
Observed metabolite, in vivo PK study after oral dosing (rats) [1]: Compound (I)
inhibition at 10 µM (human 5-HT2B receptor): -5%
